Results on 26 compounds are retold here after US6995157B2, “Substituted 4,5-dihydro-1,2,4-triazin-3-ones, 1,2,4-triazin-3-ones, and their use as fungicides and insecticides” (priority 2000, dated 2006).

In one experiment the test system is Sphaerotheca fuliginea. The note with it: in vivo.
The subject of a further experiment is Pyricularia oryzae. The experiment is classed as in vivo. The note with it: protectant, 300 g/ha, greenhouse, inoculated 1 day after spraying, rated six days after inoculation; 100 is total disease control, 0 is no disease control.

Structures are written as SMILES.

Take `CCCCCN1N=C(c2ccccc2)C(OC)NC1=O` (racemic) [Compound 9]: the CPM percent control in the experiment with Sphaerotheca fuliginea was found to be 0%. In the experiment on Pyricularia oryzae, this compound displayed an RB percent control of 85%. `COC1NC(=O)N(C)N=C1c1ccc(Cl)cc1` (racemic) [Compound 12] returned a CPM percent control with Sphaerotheca fuliginea of 0%. In the experiment on Pyricularia oryzae, this compound showed an RB percent control of 80%. On the same counts, the results for `COC1NC(=O)N(C(C)(C)C)N=C1c1ccc(Cl)cc1` (racemic) [Compound 14] are 50% and 90%. `CCCCCCCCCCN1N=C(c2ccc(Cl)cc2)C(OC)NC1=O` (racemic) [Compound 17]: in the experiment on Sphaerotheca fuliginea, the CPM percent control was determined as 0%. This compound came in with an RB percent control in the experiment on Pyricularia oryzae of 80%. For `COC1NC(=O)N(c2ccccc2)N=C1c1ccc(Cl)cc1` (racemic) [Compound 18], in that order: 80% and 85%. In turn, `COC1NC(=O)N(CC(F)(F)F)N=C1c1ccc(Cl)cc1` (racemic) [Compound 20] had a CPM percent control in the experiment with Sphaerotheca fuliginea of 0%. For the same compound, in the experiment with Pyricularia oryzae, the RB percent control turned out to be 80%.

In the experiment on Sphaerotheca fuliginea, `CCCCCN1N=C(c2ccc(Cl)cc2)C(OC)NC1=O` (centres unmarked) [Compound 1, 2-pentyl-5-methoxy-6-(4-chlorophenyl)-4,5-dihydro-1,2,4-triazin-3-one] gave a CPM percent control of 0%. The compound further yielded an RB percent control in the experiment on Pyricularia oryzae of 85%.

For `CCCCCn1nc(-c2ccc(Cl)cc2)cnc1=O` [Compound 2, 2-pentyl-6-(4-chlorophenyl)-1,2,4-triazin-3-one], the CPM percent control with Sphaerotheca fuliginea came out at 50%. The compound also came in with an RB percent control with Pyricularia oryzae of 85%.

On to `CCCCN1N=C(c2ccc(Cl)cc2)C(OC)NC1=O` (centres unmarked) [Compound 3, 2-n-butyl-5-methoxy-6-(4-chlorophenyl)-4,5-dihydro-1,2,4-triazin-3-one], for which, in the experiment with Sphaerotheca fuliginea, the CPM percent control amounted to 0%. The RB percent control in the experiment with Pyricularia oryzae was 85%.

`CCCCn1nc(-c2ccc(Cl)cc2)cnc1=O` [Compound 4, 2-n-butyl-6-(4-chlorophenyl)-1,2,4-triazin-3-one] had a CPM percent control with Sphaerotheca fuliginea of 0%. For the same compound, the RB percent control with Pyricularia oryzae was 85%. In the case of `CCCCN1N=C(c2ccc(Cl)cc2)CN(S(C)(=O)=O)C1=O` [Compound 5, 2-n-butyl-4-methanesulfonyl-6-(4-chlorophenyl)-4,5-dihydro-1,2,4-triazin-3-one], the CPM percent control with Sphaerotheca fuliginea is 90%. The RB percent control with Pyricularia oryzae is on record as 0%.

For `CCCCCn1nc(-c2ccc(OC)cc2)c(-c2ccc(OC)cc2)nc1=O` [Compound 8, 2-n-pentyl-5,6-bis-(4-methoxyphenyl)-1,2,4-triazin-3-one], the CPM percent control in the experiment with Sphaerotheca fuliginea is given as 0%. The compound further yielded an RB percent control in the experiment with Pyricularia oryzae of 50%.

The compound `CCCCCn1nc(-c2ccccc2)cnc1=O` [Compound 10] yielded a CPM percent control in the experiment with Sphaerotheca fuliginea of 0%. The RB percent control in the experiment on Pyricularia oryzae stood at 80%. On the same counts, the results for `Cn1nc(-c2ccc(Cl)cc2)cnc1=O` [Compound 11] are 0% and 80%. On to `CC(C)(C)n1nc(-c2ccc(Cl)cc2)cnc1=O` [Compound 13], for which, in the experiment with Sphaerotheca fuliginea, the CPM percent control came to 0%. For the same compound, the RB percent control in the experiment with Pyricularia oryzae stood at 85%. Compound `O=C1NCC(c2ccc(Cl)cc2)=NN1c1ccccc1` [Compound 15] registered a CPM percent control in the experiment with Sphaerotheca fuliginea of 0%. This compound had an RB percent control in the experiment with Pyricularia oryzae of 75%. For `CS(=O)(=O)N1CC(c2ccc(Cl)cc2)=NN(c2ccccc2)C1=O` [Compound 16], in that order: 0% and 50%. On the same counts, the results for `O=C1NCC(c2ccc(Cl)cc2)=NN1CC(F)(F)F` [Compound 19] are 0% and 75%. `CN1CC(c2ccc(Cl)cc2)=NN(C#N)C1=O` [Compound 27]: the CPM percent control in the experiment on Sphaerotheca fuliginea was determined as 0%. The RB percent control in the experiment on Pyricularia oryzae came to 50%. Regarding `C#CCN1N=C(c2ccc(Cl)cc2)CN(CCC)C1=O` [Compound 28], the CPM percent control in the experiment with Sphaerotheca fuliginea is reported as 0%. In the experiment with Pyricularia oryzae, this compound came in with an RB percent control of 50%. On to `CN1CC(c2ccccc2Cl)=NN(Cc2ccc(Cl)cc2)C1=O` [Compound 29], for which the RB percent control with Pyricularia oryzae turned out to be 50%.

For the compound `CN1CC(c2ccc(Cl)cc2)=NN(Cc2ccc(Cl)cc2)C1=O` [Compound 30], the RB percent control in the experiment on Pyricularia oryzae worked out at 75%. In the case of `CCC#CCn1nc(-c2ccc(Cl)cc2)cnc1=O` [Compound 31], in the experiment with Sphaerotheca fuliginea, the CPM percent control stood at 50%. In addition, the RB percent control with Pyricularia oryzae came to 85%. As for `CCC#CCN1CC(c2ccc(Cl)cc2)=NN(C)C1=O` [Compound 32], in the experiment on Sphaerotheca fuliginea, the CPM percent control came out at 75%. Moreover, the RB percent control in the experiment on Pyricularia oryzae is listed as 75%.

`CN1N=C(c2ccc(Cl)cc2)CNC1=O` [Compound 33] registered a CPM percent control in the experiment on Sphaerotheca fuliginea of 0%. Also, the RB percent control in the experiment with Pyricularia oryzae is 80%.

Regarding `CCCCCn1nc(-c2ccc(OC)cc2)cnc1=O` [Compound 34], in the experiment on Sphaerotheca fuliginea, the CPM percent control worked out at 0%. This compound also returned an RB percent control with Pyricularia oryzae of 85%.
